According to US4221808A, “Novel antihypertensive agent” (Richardson-Merrell Inc., priority 1979, dated 1980):

Key:
[1] = system: spontaneously hypertensive rats (SHR); experiment: Antihypertensive activity in spontaneously hypertensive rats, systolic blood pressure by tail cuff; type: in vivo, rat; conditions: oral dose of 50 mg/kg
Experimental: Antihypertensive activity was determined in spontaneously hypertensive rats (SHR) of the Okomotor Aoki strain. Systolic blood pressure of the SHR was measured from the caudal artery by means of an indirect method utilizing a photocell transducer/tail cuff occluder system. Time response relationships were determined for each compound following an oral dose of 50 mg/kg. Data were expressed as mm Hg decrease from control values. Statistical significance was determined using a 2 tailed "t" test comparing drug treatment response values to those obtained from concurrent vehicle treated animals.

β-adrenergic receptor [2] = molecular target: T1, β-adrenergic receptor (Cavia porcellus, UniProt H0W3H1); experiment: β-Adrenergic receptor blocking activity in isolated guinea pig atria, isoproterenol as agonist; type: cell-based; conditions: isolated guinea pig atria; agonist isoproterenol; increase in rate; read-out: pA2 for β-adrenergic receptor blocking activity (converted)
T1 construct: isolated guinea pig atria preparation; from tissue; host or cells: guinea pig atria (isolated)
T1 sequence (H0W3H1 1-470): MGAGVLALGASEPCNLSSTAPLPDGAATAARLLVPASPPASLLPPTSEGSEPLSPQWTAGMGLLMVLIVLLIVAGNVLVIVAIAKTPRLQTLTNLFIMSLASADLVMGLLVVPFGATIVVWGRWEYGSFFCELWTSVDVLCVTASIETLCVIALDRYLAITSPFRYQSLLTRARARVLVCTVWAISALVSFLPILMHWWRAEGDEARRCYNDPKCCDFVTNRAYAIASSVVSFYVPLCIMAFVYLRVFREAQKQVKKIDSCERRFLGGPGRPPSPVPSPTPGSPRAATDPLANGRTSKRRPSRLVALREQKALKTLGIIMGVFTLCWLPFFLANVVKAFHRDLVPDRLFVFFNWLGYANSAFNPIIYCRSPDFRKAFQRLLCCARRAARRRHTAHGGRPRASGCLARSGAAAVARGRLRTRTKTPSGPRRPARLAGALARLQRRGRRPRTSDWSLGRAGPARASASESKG
Experimental: (§1) β-Adrenergic receptor blocking activity was determined in vitro by performing cumulative dose-response experiments in the isolated guinea pig atria preparation using isoproterenol as the agonist. The response (increase in rate) of the guinea pig atria preparation in the presence of logarithmically increasing concentration of the compounds being tested were expressed as percent of the maximal attainable response. Relative antagonistic potency was expressed as a pA2 value, as defined above.

β-adrenergic receptor [3] = experiment: as above; type: cell-based; conditions: from pA2 values, guinea pig atria (β) vs rabbit aortic strip (α)
Experimental: as §1

α-adrenergic receptor = experiment: α-Adrenergic receptor blocking activity in isolated rabbit aortic strip, norepinephrine as agonist; type: cell-based; conditions: contractile response
Experimental: α-Adrenergic receptor blocking activity was determined in vitro by performing cumulative dose-response experiments in the isolated rabbit aortic strip preparation using norepinephrine as the agonist. The contractile response of the rabbit strip preparation in the presence of logarithmically increasing concentrations of the compounds being tested were expressed as percent of the maximal attainable response.

Row | Structure (SMILES) | decrease in systolic blood pressure from control values ([1]; after 1 hour) | decrease in systolic blood pressure from control values ([1]; after 4 hours) | Kb (β-adrenergic receptor [2]) | ratio of β/α blocking activity (β-adrenergic receptor [3]) | pA2 for α-adrenergic receptor blocking activity (α-adrenergic receptor)
1 | CC(CCc1ccc2c(c1)OCO2)NCC(O)c1ccc(O)c(C(N)=O)c1.Cl (stereo not shown) [compound 2, 5-[2-[[3-(1,3-benzodioxol-5-yl)-1-methylpropyl]amino]-1-hydroxyethyl]-2-hydroxybenzamide hydrochloride] | 71 mm Hg | 64 mm Hg | 15.1 nM | 55 | 6.08
2 | CC(C)NCC(O)COc1cccc2ccccc12 (stereo not shown) [propranolol] | did not lower blood pressure significantly | did not lower blood pressure significantly | – | – | < 5
3 | Cc1ccc(N(CC2=NCCN2)c2cccc(O)c2)cc1 [phentolamine] | 62 mm Hg | 60 mm Hg | > 10000 nM | – | –
4 | COc1ccc(C(O)CNC(C)CCc2ccc3c(c2)OCO3)cc1C(N)=O.Cl (stereo not shown) [compound 1, 5-[2-[[3-(1,3-Benzodioxol-5-yl)-1-methylpropyl]amino]-1-hydroxyethyl]-2-methoxybenzamide hydrochloride] | 42 mm Hg | 67 mm Hg | 3.47 nM | > 2089 | 5.14
